Data set [1] addresses T1, Neuronal acetylcholine receptor; alpha4/beta2 (Homo sapiens, UniProt P17787+P43681). Briefly: Agonist activity at human alpha4beta2 nAChR low sensitivity isoform transfected in SH-EP1 cells assessed as calcium flux by FLIPR assay relative to control. Type of data set: cell-based. (Calcium flux is commonly read through the fluorescence of an indicator in the cells.)
In data set [2] the target is T2, Neuronal acetylcholine receptor; alpha3/alpha6/beta2/beta3 (Homo sapiens, UniProt P17787+P32297+Q05901+Q15825). Briefly: Displacement of [3H]epibatidine from human alpha6/alpha3beta2beta3 nAChR transfected in CHO cells by liquid scintillation counting. It counts as cell-based. For orientation: Displacement assays read how much labelled ligand stays bound in the presence of the test substance.

Data set [3] addresses T1, Neuronal acetylcholine receptor; alpha4/beta2. The experiment in a line: Agonist activity at human alpha4beta2 nAChR low sensitivity isoform transfected in SH-EP1 cells assessed as calcium flux by FLIPR assay. Type of data set: cell-based.
In data set [4] the target is Neuronal acetylcholine receptor; alpha3/alpha6/beta2/beta3 (Homo sapiens) (UniProt P17787+P32297+Q15825+Q05901). The experiment in a line: Agonist activity at human alpha6/alpha3beta2beta3 nAChR transfected in CHO cells assessed as calcium flux by FLIPR assay relative to control. It counts as cell-based.
Data set [5] has as its target T2, Neuronal acetylcholine receptor; alpha3/alpha6/beta2/beta3. The experiment in a line: Agonist activity at human alpha6/alpha3beta2beta3 nAChR transfected in CHO cells assessed as calcium flux by FLIPR assay. Type of data set: cell-based.
Data set [6] deals with T1, Neuronal acetylcholine receptor; alpha4/beta2. Briefly: Displacement of [3H] nicotine from human alpha4beta2 nAChR transfected in SH-EP1 cells by liquid scintillation counting. It counts as cell-based.
For data set [7] the target is unchanged. The experiment in a line: Agonist activity at human alpha4beta2 nAChR transfected in SH-EP1 cells assessed as calcium flux by FLIPR assay. Type of data set: cell-based.
Data set [8] has the same target. Briefly: Agonist activity at human alpha4beta2 nAChR high sensitivity isoform transfected in SH-EP1 cells assessed as calcium flux by FLIPR assay relative to control. Type of data set: cell-based.
Data set [9] can be described thus: Drug uptake in po dosed rat brain after 1 hrs by LC-MS/MS analysis. Type of data set: ADME, organism-based. To be noted: read-out: Drug uptake.
Data set [10] can be described thus: Cmax in po dosed rat. Type of data set: ADME, organism-based. More on the design: route oral. The conditions noted are these: in vivo.
The next data set is filed under the species Rattus norvegicus. Briefly: Inhibition of L-dopa-induced abnormal involuntary movement in rat. Type of data set: functional.
Data set [11] is described as follows: Drug uptake in po dosed rat plasma after 0.5 hrs by LC-MS/MS analysis. It counts as ADME, organism-based.
The nature of data set [12]: Drug uptake in po dosed rat brain after 0.5 hrs by LC-MS/MS analysis. It counts as ADME, organism-based. To be noted: read-out: Drug uptake.
The nature of data set [13]: Oral bioavailability in rat. Type of data set: ADME, organism-based. To be noted: in vivo.
Data set [14] in a line: Ratio of drug level in po dosed rat brain to plasma after 4 hrs by LC-MS/MS analysis. Type of data set: ADME, organism-based. The conditions noted are these: read-out: BPR.
Data set [15] can be described thus: Drug uptake in po dosed rat plasma after 4 hrs by LC-MS/MS analysis. It counts as ADME, organism-based.
Data set [16] is described as follows: Tmax in po dosed rat. Type of data set: ADME, organism-based. To be noted: in vivo.
A short description of data set [17]: Drug uptake in po dosed rat brain after 4 hrs by LC-MS/MS analysis. It counts as ADME, organism-based. The conditions noted are these: read-out: Drug uptake.
Data set [18] is described as follows: Drug uptake in po dosed rat plasma after 1 hrs by LC-MS/MS analysis. It counts as ADME, organism-based.
Data set [19] is described as follows: Half life in po dosed rat. Type of data set: ADME, organism-based. The conditions noted are these: in vivo.
The nature of data set [20]: Ratio of drug level in po dosed rat brain to plasma after 0.5 hrs by LC-MS/MS analysis. Type of data set: ADME, organism-based. To be noted: read-out: BPR.
The nature of data set [21]: Ratio of drug level in po dosed rat brain to plasma after 1 hrs by LC-MS/MS analysis. It counts as ADME, organism-based. To be noted: read-out: BPR.

The structures appear in SMILES notation.

T2 sequence (P17787 whole entry): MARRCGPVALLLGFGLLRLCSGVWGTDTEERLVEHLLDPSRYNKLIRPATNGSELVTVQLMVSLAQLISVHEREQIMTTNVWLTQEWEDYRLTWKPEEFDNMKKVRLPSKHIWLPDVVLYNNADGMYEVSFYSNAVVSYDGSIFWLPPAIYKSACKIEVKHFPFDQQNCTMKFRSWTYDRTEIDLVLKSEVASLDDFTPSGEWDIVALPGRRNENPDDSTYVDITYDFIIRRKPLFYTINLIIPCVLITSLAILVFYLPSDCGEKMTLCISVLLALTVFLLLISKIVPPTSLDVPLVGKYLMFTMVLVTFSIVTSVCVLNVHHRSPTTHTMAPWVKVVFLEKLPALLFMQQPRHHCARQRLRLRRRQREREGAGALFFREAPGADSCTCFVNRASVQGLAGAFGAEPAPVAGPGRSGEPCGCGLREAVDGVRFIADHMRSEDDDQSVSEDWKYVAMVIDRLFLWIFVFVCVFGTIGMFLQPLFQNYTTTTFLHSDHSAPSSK
T2 sequence (P32297 whole entry): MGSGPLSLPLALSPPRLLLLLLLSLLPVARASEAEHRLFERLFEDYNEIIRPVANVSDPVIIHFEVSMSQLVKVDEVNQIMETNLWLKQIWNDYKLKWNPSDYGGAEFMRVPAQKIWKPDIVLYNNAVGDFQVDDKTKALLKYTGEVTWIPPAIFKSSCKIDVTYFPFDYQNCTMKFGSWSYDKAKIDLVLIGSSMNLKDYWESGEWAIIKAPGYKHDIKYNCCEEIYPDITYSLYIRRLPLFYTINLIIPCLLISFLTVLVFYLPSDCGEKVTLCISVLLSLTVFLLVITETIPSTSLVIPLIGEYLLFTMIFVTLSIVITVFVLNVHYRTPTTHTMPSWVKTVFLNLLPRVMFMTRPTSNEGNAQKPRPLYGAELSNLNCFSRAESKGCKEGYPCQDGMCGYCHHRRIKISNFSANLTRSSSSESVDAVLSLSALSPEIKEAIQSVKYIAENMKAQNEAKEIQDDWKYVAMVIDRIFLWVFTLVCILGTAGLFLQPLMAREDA
T2 sequence (Q15825 whole entry): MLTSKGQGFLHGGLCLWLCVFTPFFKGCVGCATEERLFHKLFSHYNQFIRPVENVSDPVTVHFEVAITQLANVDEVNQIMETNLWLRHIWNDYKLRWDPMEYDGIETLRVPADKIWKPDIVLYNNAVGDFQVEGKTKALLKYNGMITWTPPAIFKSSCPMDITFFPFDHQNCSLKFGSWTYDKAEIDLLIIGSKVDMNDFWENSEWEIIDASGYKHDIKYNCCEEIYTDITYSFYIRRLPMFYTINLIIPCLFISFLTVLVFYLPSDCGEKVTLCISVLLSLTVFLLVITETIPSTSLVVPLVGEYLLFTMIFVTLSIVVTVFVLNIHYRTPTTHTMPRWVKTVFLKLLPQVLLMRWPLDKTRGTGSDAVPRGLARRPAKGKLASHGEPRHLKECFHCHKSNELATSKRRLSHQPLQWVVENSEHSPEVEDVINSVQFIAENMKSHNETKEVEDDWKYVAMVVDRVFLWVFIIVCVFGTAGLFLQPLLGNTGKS
T2 sequence (Q05901 whole entry): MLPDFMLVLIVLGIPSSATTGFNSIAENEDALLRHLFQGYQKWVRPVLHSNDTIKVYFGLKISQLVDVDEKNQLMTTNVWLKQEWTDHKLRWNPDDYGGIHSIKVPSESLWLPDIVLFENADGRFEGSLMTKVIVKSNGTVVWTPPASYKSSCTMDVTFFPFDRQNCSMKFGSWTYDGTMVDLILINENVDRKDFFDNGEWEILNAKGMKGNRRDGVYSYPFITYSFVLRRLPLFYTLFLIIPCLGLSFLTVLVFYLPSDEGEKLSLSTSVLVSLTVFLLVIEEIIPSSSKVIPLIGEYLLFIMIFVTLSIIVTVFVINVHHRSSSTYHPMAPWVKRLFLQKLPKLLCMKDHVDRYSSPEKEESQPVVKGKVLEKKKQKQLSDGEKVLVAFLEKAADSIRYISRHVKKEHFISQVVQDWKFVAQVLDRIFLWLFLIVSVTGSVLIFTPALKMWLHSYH
T1 sequence (P17787 whole entry, canonical isoform): as the sequence (P17787 whole entry) above
T1 sequence (P43681 whole entry, canonical isoform): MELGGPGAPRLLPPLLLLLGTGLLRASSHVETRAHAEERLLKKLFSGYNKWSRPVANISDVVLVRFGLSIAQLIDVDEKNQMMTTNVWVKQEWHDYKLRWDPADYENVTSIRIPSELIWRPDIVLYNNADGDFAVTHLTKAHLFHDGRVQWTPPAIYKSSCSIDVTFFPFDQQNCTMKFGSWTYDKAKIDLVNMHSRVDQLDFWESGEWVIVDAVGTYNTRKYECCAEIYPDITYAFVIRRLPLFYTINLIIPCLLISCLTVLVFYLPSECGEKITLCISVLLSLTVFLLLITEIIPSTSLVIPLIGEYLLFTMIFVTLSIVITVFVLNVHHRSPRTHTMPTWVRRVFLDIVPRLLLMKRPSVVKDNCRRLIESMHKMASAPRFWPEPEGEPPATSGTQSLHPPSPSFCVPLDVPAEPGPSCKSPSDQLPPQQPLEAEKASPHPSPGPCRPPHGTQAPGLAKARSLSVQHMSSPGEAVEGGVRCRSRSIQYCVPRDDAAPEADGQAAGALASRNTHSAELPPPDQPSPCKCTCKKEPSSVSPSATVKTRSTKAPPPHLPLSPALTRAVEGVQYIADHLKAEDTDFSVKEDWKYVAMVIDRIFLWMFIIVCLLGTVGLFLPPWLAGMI

The Emax is the greatest response seen or fitted, relative to the assay's reference. In general, Ki refers to a dissociation constant, usually derived from enzyme kinetics or from competition with a known ligand. A word on the EC50: it is the concentration that produces a half-maximal response. `CC1(C)CC1C(=O)N1CC2CC(C1)N2` (configuration not stated): the maximal effect (Emax) was 96% in data set [1], 73% in data set [4] and 92% in data set [8]. Moreover, the values for the Ki in [2] and in data set [6] were 250 nM and 3.9 nM, respectively. The results for the EC50 in [3], in data set [5] and in [7] were 5.7 µM, 540 nM and 2200 nM, respectively.
On to `C[C@H]1C[C@@H]1C(=O)N1CC2CC(C1)N2`, for which the Emax in data set [1] amounted to 67%; in data set [4] it was 64%; in data set [8], 85%. Moreover, the Ki is 310 nM in [2] and 17 nM in [6]. For the same molecule, the EC50 worked out at 14 µM in [3], 3800 nM in data set [5] and 9100 nM in data set [7].
For the molecule `O=C([C@@H]1C[C@@H]1F)N1CC2CC(C1)N2`, the Emax in [1] came out at 120%; in data set [4], 120%; in data set [8], 110%. Besides, the Ki in data set [2] was determined as 55 nM; in [6], 1.7 nM. Also, the EC50 in data set [3] worked out at 0.37 µM; in [5] it was 88 nM; in data set [7], 120 nM.
With `O=C(CC1C=CCC1)N1CC2CC(C1)N2` (configuration not stated), the Emax stood at 89% in data set [1], 47% in data set [4] and 94% in data set [8]. Moreover, the Ki was determined as 2500 nM in [2] and 53 nM in [6]. Moreover, the EC50 in [3] was 37 µM; in data set [5], 21000 nM; in [7], 14000 nM.
Regarding `C[C@@H]1C[C@H]1C(=O)N1CC2CC(C1)N2`, the Emax in data set [1], in data set [4] and in data set [8] was 110% in each case. This molecule came in with a Ki in [2] of 14 nM. Moreover, the EC50 was 2.9 µM in data set [3], 51 nM in [5] and 190 nM in data set [7].
In the case of `O=C(C1CC=CC1)N1CC2CC(C1)N2`, the Emax was 93% in data set [1], 99% in [4] and 95% in [8]. Besides, the Ki was 1100 nM in data set [2] and 51 nM in [6]. The EC50 turned out to be 17 µM in [3], 1900 nM in [5] and 6600 nM in [7].
Turning to `CCC(=O)N1CC2CC(C1)N2`, the Emax in [1] worked out at 98%; in data set [4], 120%; in data set [8] it was 110%. Also, the figures for the Ki in [2] and in data set [6] were 190 nM and 6 nM, respectively. The EC50 in data set [3] was found to be 5.9 µM; in data set [5], 180 nM; in data set [7], 490 nM.
With `O=C(C1CCCC1)N1CC2CC(C1)N2`, the results for the Emax in [1], in data set [4] and in data set [8] were 48%, 62% and 68%, respectively. Besides, the Ki was found to be 2900 nM in data set [2] and 160 nM in [6]. Moreover, the EC50 in data set [3] stood at 29 µM; in [5] it was 1600 nM; in [7], 11000 nM.
In the case of `O=C([C@H]1C[C@H]1F)N1CC2CC(C1)N2`, the Emax came to 110% in data set [1], 130% in data set [4] and 110% in [8]. Further, in data set [2], the inhibition constant (Ki) is 27 nM. For the same molecule, the EC50 in [3] worked out at 1.5 µM; in [5], 62 nM; in data set [7], 210 nM.
For the molecule `O=C(C1CC1(F)F)N1CC2CC(C1)N2` (configuration not stated), the maximal response (Emax) in data set [1] is 94%; in data set [4] it was 110%; in data set [8], 100%. Moreover, the Ki was determined as 75 nM in data set [2] and 5.9 nM in [6]. For the same molecule, the EC50 in [3] was determined as 2.3 µM; in data set [5], 100 nM; in [7] it was 1000 nM.
Consider `CC(C)C(=O)N1CC2CC(C1)N2`, for which the figures for the Emax in [1], in data set [4] and in data set [8] were 86%, 45% and 71%, respectively. In addition, the Ki in data set [2] came to 580 nM; in data set [6], 130 nM. For the same molecule, the EC50 in data set [3] amounted to 20 µM; in data set [5], 16000 nM; in data set [7] it was 19000 nM.
As to `O=C(C1CC1)N1CC2CCC(C1)N2`, the Ki in data set [2] stood at 7200 nM; in data set [6], 320 nM.
In the case of `O=C(C1CC1)N1CCNCC1`, the Ki in data set [2] came out at 26000 nM; in [6], 6000 nM.
For `CCCC(=O)N1CC2CC(C1)N2`, the Emax in data set [1] came out at 120%; in data set [4], 92%; in data set [8] it was 110%. Also, the figures for the Ki in data set [2] and in [6] were 350 nM and 14 nM, respectively. Further, the values for the EC50 in data set [3], in data set [5] and in [7] were 0.85 µM, 300 nM and 580 nM, respectively.
`CC(=O)N1CC2CC(C1)N2`: the results for the Emax in [1], in data set [4] and in data set [8] were 94%, 100% and 95%, respectively. For the same molecule, the Ki in data set [2] came out at 610 nM; in data set [6] it was 150 nM. The EC50 stood at 9.7 µM in data set [3], 750 nM in data set [5] and 5100 nM in data set [7].
On to `O=C([C@H]1C[C@@H]1F)N1CC2CC(C1)N2`, for which the values for the Emax in data set [1], in data set [4] and in [8] were 100%, 85% and 100%, respectively. Further, the Ki in data set [2] worked out at 490 nM; in data set [6], 5.4 nM. Besides, the results for the EC50 in data set [3], in data set [5] and in data set [7] were 2.8 µM, 620 nM and 850 nM, respectively.
As for `O=C(C1CCC1)N1CC2CC(C1)N2`, the Emax in data set [1] was determined as 100%; in [4], 80%; in [8], 99%. Moreover, the results for the Ki in [2] and in [6] were 240 nM and 16 nM, respectively. The EC50 in data set [3] is 11 µM; in [5], 370 nM; in [7] it was 2900 nM.
The term Cmax denotes the peak of the concentration-time curve. The term bioavailability denotes the share of a dose that reaches the circulation, judged against a reference dose that is usually intravenous. Usually Tmax stands for the time at which the peak concentration occurs. The term half-life denotes how long it takes for the measured level to halve. Low values mean fast loss, high ones slow loss. In the case of `O=C(C1CC1)N1CC2CC(C1)N2`, the concentration at 1 h in [9] worked out at 53.7 ng/g; in [18], 174 ng/mL. Also, the Cmax in data set [10] turned out to be 200 ng/mL. Also, the “inhibition (INH)” value in the data set listed under Rattus norvegicus was 24%. Also, the values for the Emax in data set [1], in data set [4] and in data set [8] were 110%, 100% and 110%, respectively. Besides, affinity in data set [2] was put at a Ki of 21 nM. Also, the EC50 in [3] is 0.85 µM; in data set [5] it was 80 nM; in data set [7], 140 nM. Moreover, the concentration at 0.5 h in data set [11] stood at 123 ng/mL; in [12] it was 39.5 ng/g. Besides, the bioavailability in data set [13] is 82.6%. Further, the Kp at 4 h in data set [14] was 0.32. Besides, the concentration at 4 h in data set [15] amounted to 62.2 ng/mL; in [17] it was 20.2 ng/g. In data set [16], the Tmax is 1 h. This molecule also gave a half-life in data set [19] of 94.8 min. In addition, the Kp at 0.5 h in [20] came to 0.22. Further, in data set [21], the Kp at 1 h amounted to 0.31.
As for `C[C@@H]1C[C@@H]1C(=O)N1CC2CC(C1)N2`, the Emax in data set [1] turned out to be 88%; in [4] it was 87%; in [8], 97%. This molecule showed a Ki in data set [2] of 92 nM. In addition, the EC50 in data set [3] turned out to be 3.8 µM; in [5], 920 nM; in [7], 2100 nM.
As to `C[C@H]1C[C@H]1C(=O)N1CC2CC(C1)N2`, the values for the Emax in data set [1], in data set [4] and in data set [8] were 87%, 60% and 93%, respectively. Further, the figures for the Ki in data set [2] and in data set [6] were 170 nM and 7 nM, respectively. In addition, the EC50 stood at 5.8 µM in [3], 2000 nM in data set [5] and 2200 nM in data set [7].
Turning to `O=C([C@@H]1C[C@H]1F)N1CC2CC(C1)N2`, the values for the Emax in [1], in [4] and in [8] were 110%, 130% and 110%, respectively. In [2], this molecule yielded a Ki of 43 nM. Besides, the figures for the EC50 in [3], in data set [5] and in data set [7] were 0.87 µM, 53 nM and 120 nM, respectively.
On to `O=C(C1CC1)N1CC2CC1CN2` (configuration not stated), for which the figures for the Ki in [2] and in [6] were 10000 nM and 2800 nM, respectively.

The record behind these values is ChEMBL document CHEMBL3352319, “Identification and pharmacological characterization of 3,6-diazabicyclo[3.1.1]heptane-3-carboxamides as novel ligands for the α4β2 and α6/α3β2β3 nicotinic acetylcholine receptors (nAChRs)” (Eur J Med Chem, 2014).
